Measurements published in publication PMC3446931, “Cyclohexyl Ketone Inhibitors of Pin1 Dock in a Trans-Diaxial Cyclohexane Conformation” (PLoS ONE, 2012).

Target: Pin1 (Homo sapiens, UniProt Q13526)
Assay: alpha-chymotrypsin protease-coupled PPIase assay
Type: biochemical

Sequence of Pin1 (Q13526 whole entry): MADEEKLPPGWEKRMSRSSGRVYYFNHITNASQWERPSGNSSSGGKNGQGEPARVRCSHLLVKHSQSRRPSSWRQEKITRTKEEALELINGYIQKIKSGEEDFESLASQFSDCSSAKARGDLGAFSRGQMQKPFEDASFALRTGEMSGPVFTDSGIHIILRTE

IC50 [µM] | Compound
260 ± 30 | CC(=O)N[C@@H](COP(=O)(O)O)C(=O)[C@@H]1CCCC[C@H]1C(=O)NCCc1c[nH]c2ccccc12 [compound 1, 1]
61 ± 8 | CC(=O)NC(COP(=O)(O)O)C(=O)C1CCCCC1C(=O)NCCc1c[nH]c2ccccc12 (racemic) [rac-2]
